For eight molecules, IC50 results are on record in US9988420B2, “Cytotoxic peptides and conjugates thereof” (priority 2013, dated 2018).

Like-named read-outs stand apart in the source and are kept apart here. Starred links: 1 amine or outer side, 2 acyl side, 3 side chain; linkers in the order of their positions; H or OH if unused. Non-standard residues stand in square brackets, D forms with d. Residues, ends and D or L forms follow the SMILES beside them. *: point of attachment. Dolaproine = CO[C@@H]([C@@H]1CCCN1)[C@@H](C)C(=O)O; X1 = O=C([C@@H]1[C@H]2CC[C@H](C2)N1[*:1])[*:2]; X3 = NC(=O)CN1[C@@H]2CC[C@@H](C2)[C@H]1C(=O)*; Dil = CC[C@H](C)[C@H](NC)[C@@H](CC(=O)O)OC; X2 = CN1[C@@H]2CC[C@@H](C2)[C@H]1C(=O)*; Phe(ol) = N[C@H](CO)Cc1ccccc1

What all share (test): In vitro cell killing assay of payloads (cell proliferation, Cell-Titer-Glo)
What all share (format): cell-based

The subject of assay [1] is HCC1954 cells. The note with it: Homo sapiens, read-out: In vitro cell killing (IC50 (nM)) HCC1954.
Assay [2] relates to JimT1 cells. The note with it: Homo sapiens, JIMT-1, 120 h, read-out: In vitro cell killing (IC50 (nM)) JimT1.
The test system of assay [3] is H526 cells. The note with it: Homo sapiens, read-out: In vitro cell killing (IC50 (nM)) NCI-H526.
The test system of assay [4] is A375 cells. The note with it: Homo sapiens, A-375, 120 h, Cell-Titer-Glo after five days. As for the experimental part: (§1) For evaluation of the cell killing potency of the cytotoxic peptides of Formula (I) in vitro, cell proliferation assays were performed in parallel with 8 cell lines: MDA-MB231 clone 16, clone 40, JimT1, HCC1954, H526, KU812, CMK11-5 cells and Jurkat cells. In addition, in vitro, cell proliferation assays were performed using 3 other cell lines: A375, SKBR3 and NCI-N87. All the cell lines are described in more detail in Example 106 and were also used to assess the in vitro potency of immunoconjugates of the invention. The cell proliferation assays were conducted with Cell-Titer-Glo™ (Promega) five days after cells were incubated with various concentrations of ADCs (Riss et al., (2004) Assay Drug Dev Technol. 2:51-62).

Assay [5] deals with NCI-N87 cells. The note with it: Homo sapiens, 120 h, Cell-Titer-Glo after five days. As for the experimental part: as §1
[6] abbreviates: 120 h, HCC1954 cells, Cell-Titer-Glo after five days, Table 2b.
The mark [7] stands for this setting: JimT1 cells, Cell-Titer-Glo after five days, Table 2b.
Where [8] appears, read: 120 h, NCI-H526 cells, Cell-Titer-Glo after five days, Table 2b.

Consider `CC[C@H](C)[C@@H]([C@@H](CC(=O)N1CCC[C@H]1[C@H](OC)[C@@H](C)C(=O)N[C@@H](Cc1ccccc1)c1ncccn1)OC)N(C)C(=O)[C@@H](NC(=O)[C@@H]1[C@H]2CC[C@H](C2)N1C)C(C)C` [Compound 69, (1R,3S,4S)-N-((S)-1-(((3R,4S,5S)-3-Methoxy-1-((S)-2-((1R,2R)-1-methoxy-2-methyl-3-oxo-3-(((S)-2-phenyl-1-(pyrimidin-2-yl)ethyl)amino)propyl)pyrrolidin-1-yl)-5-methyl-1-oxoheptan-4-yl)(methyl)amino)-3-methyl-1-oxobutan-2-yl)-2-methyl-2-azabicyclo[2.2.1]heptane-3-carboxamide], for which the IC50 in assay [1] (setting [6]) turned out to be 0.065 nM; in assay [2] (setting [7]) it was 0.091 nM; in assay [3] (setting [8]) it was 0.189 nM; in assay [4] it was 0.092 nM; in assay [5] it was 0.142 nM.

For `CC[C@H](C)[C@@H]([C@@H](CC(=O)N1CCC[C@H]1[C@H](OC)[C@@H](C)C(=O)N[C@@H](Cc1ccccc1)c1cc[nH]n1)OC)N(C)C(=O)[C@@H](NC(=O)[C@@H]1[C@H]2CC[C@H](C2)N1C)C(C)C` [Compound 68, (1R,3S,4S)-N-((S)-1-(((3R,4S,5S)-3-Methoxy-1-((S)-2-((1R,2R)-1-methoxy-2-methyl-3-oxo-3-(((S)-2-phenyl-1-(1H-pyrazol-3-yl)ethyl)amino)propyl)pyrrolidin-1-yl)-5-methyl-1-oxoheptan-4-yl)(methyl)amino)-3-methyl-1-oxobutan-2-yl)-2-methyl-2-azabicyclo[2.2.1]heptane-3-carboxamide], the IC50 in assay [1] (setting [6]) was 0.127 nM; in assay [2] (setting [7]) it was 0.251 nM; in assay [3] (setting [8]), 0.428 nM; in assay [4], 0.596 nM; in assay [5], 0.2 nM.

Regarding `CC[C@H](C)[C@@H]([C@@H](CC(=O)N1CCC[C@H]1[C@H](OC)[C@@H](C)C(=O)N[C@H](CO)Cc1ccccc1)OC)N(C)C(=O)[C@@H](NC(=O)[C@@H]1[C@H]2CC[C@H](C2)N1C(C)=O)C(C)C` [Compound 65, (1R,3S,4S)-2-Acetyl-N-((S)-1-(((3R,4S,5S)-1-((S)-2-((1R,2R)-3-(((S)-1-hydroxy-3-phenylpropan-2-yl)amino)-1-methoxy-2-methyl-3-oxopropyl)pyrrolidin-1-yl)-3-methoxy-5-methyl-1-oxoheptan-4-yl)(methyl)amino)-3-methyl-1-oxobutan-2-yl)-2-azabicyclo[2.2.1]heptane-3-carboxamide] (Ac-[X1]V[Dil][Dolaproine][Phe(ol)]), the IC50 in assay [1] (setting [6]) turned out to be 0.93 nM; in assay [2] (setting [7]), 6.88 nM; in assay [3] (setting [8]), 3.82 nM; in assay [4], 31.3 nM; in assay [5], 3.67 nM.

On to `CC[C@H](C)[C@@H]([C@@H](CC(=O)N1CCC[C@H]1[C@H](OC)[C@@H](C)C(=O)N[C@H](CO)Cc1ccccc1)OC)N(C)C(=O)[C@@H](NC(=O)[C@@H]1[C@H]2CC[C@H](C2)N1CC(N)=O)C(C)C` [Compound 64, (1R,3S,4S)-2-(2-Amino-2-oxoethyl)-N-((S)-1-(((3R,4S,5S)-1-((S)-2-((1R,2R)-3-(((S)-1-hydroxy-3-phenylpropan-2-yl)amino)-1-methoxy-2-methyl-3-oxopropyl)pyrrolidin-1-yl)-3-methoxy-5-methyl-1-oxoheptan-4-yl)(methyl)amino)-3-methyl-1-oxobutan-2-yl)-2-azabicyclo[2.2.1]heptane-3-carboxamide] (X3-V[Dil][Dolaproine][Phe(ol)]), for which the IC50 in assay [1] (setting [6]) worked out at 1.09 nM; in assay [2] (setting [7]) it was 4.15 nM; in assay [3] (setting [8]), 5.74 nM; in assay [4], 25.6 nM; in assay [5], 1.21 nM.

For the molecule `CC[C@H](C)[C@@H]([C@@H](CC(=O)N1CCC[C@H]1[C@H](OC)[C@@H](C)C(=O)N[C@@H](Cc1ccccc1)c1nnc(-c2ccccc2)o1)OC)N(C)C(=O)[C@@H](NC(=O)[C@@H]1[C@H]2CC[C@H](C2)N1C)C(C)C` [Compound 71, (1R,3S,4S)-N-((S)-1-(((3R,4S,5S)-3-methoxy-1-((S)-2-((1R,2R)-1-Methoxy-2-methyl-3-oxo-3-(((S)-2-phenyl-1-(5-phenyl-1,3,4-oxadiazol-2-yl)ethyl)amino)propyl)pyrrolidin-1-yl)-5-methyl-1-oxoheptan-4-yl)(methyl)amino)-3-methyl-1-oxobutan-2-yl)-2-methyl-2-azabicyclo[2.2.1]heptane-3-carboxamide], the IC50 in assay [1] (setting [6]) amounted to 0.075 nM; in assay [2] (setting [7]), 0.124 nM; in assay [3] (setting [8]), 0.352 nM; in assay [4], 0.119 nM; in assay [5], 0.091 nM.

For the molecule `CC[C@H](C)[C@@H]([C@@H](CC(=O)N1CCC[C@H]1[C@H](OC)[C@@H](C)C(=O)N[C@H](Cc1ccccc1)c1ncccn1)OC)N(C)C(=O)[C@@H](NC(=O)[C@@H]1[C@H]2CC[C@H](C2)N1C)C(C)C` [Compound 70, (1R,3S,4S)-N-((S)-1-(((3R,4S,5S)-3-methoxy-1-((S)-2-((1R,2R)-1-methoxy-2-methyl-3-oxo-3-(((R)-2-phenyl-1-(pyrimidin-2-yl)ethyl)amino)propyl)pyrrolidin-1-yl)-5-methyl-1-oxoheptan-4-yl)(methyl)amino)-3-methyl-1-oxobutan-2-yl)-2-methyl-2-azabicyclo[2.2.1]heptane-3-carboxamide], the IC50 was determined as 1.38 nM in assay [1] (setting [6]); 2.36 nM in assay [2] (setting [7]); 4.73 nM in assay [3] (setting [8]); 2.16 nM in assay [4]; 3.81 nM in assay [5].

Take `CC[C@H](C)[C@@H]([C@@H](CC(=O)N1CCC[C@H]1[C@H](OC)[C@@H](C)C(=O)N[C@H](COC)Cc1ccccc1)OC)N(C)C(=O)[C@@H](NC(=O)[C@@H]1[C@H]2CC[C@H](C2)N1C)C(C)C` [Compound 67, (1R,3S,4S)-N-((S)-1-(((3R,4S,5S)-3-Methoxy-1-((S)-2-((1R,2R)-1-methoxy-3-(((S)-1-methoxy-3-phenylpropan-2-yl)amino)-2-methyl-3-oxopropyl)pyrrolidin-1-yl)-5-methyl-1-oxoheptan-4-yl)(methyl)amino)-3-methyl-1-oxobutan-2-yl)-2-methyl-2-azabicyclo[2.2.1]heptane-3-carboxamide]: the IC50 is 0.239 nM in assay [1] (HCC1954, 120 h); 0.369 nM in assay [2]; 0.614 nM in assay [3] (NCI-H526, 120 h); 0.244 nM in assay [4].

Turning to `CC[C@H](C)[C@@H]([C@@H](CC(=O)N1CCC[C@H]1[C@H](OC)[C@@H](C)C(=O)N[C@@H](Cc1ccccc1)C(=O)O)OC)N(C)C(=O)[C@@H](NC(=O)[C@@H]1[C@H]2CC[C@H](C2)N1C)C(C)C` [Compound 54, (S)-2-((2R,3R)-3-((S)-1-((3R,4S,5S)-4-((S)-N,3-Dimethyl-2-((1R,3S,4S)-2-methyl-2-azabicyclo[2.2.1]heptane-3-carboxamido)butanamido)-3-methoxy-5-methylheptanoyl)pyrrolidin-2-yl)-3-methoxy-2-methylpropanamido)-3-phenylpropanoic acid] (X2-V[Dil][Dolaproine]F-OH), the IC50 in assay [1] (setting [6]) was 7.18 nM; in assay [2] (setting [7]), 17.1 nM; in assay [3] (setting [8]), 54.8 nM; in assay [4], 27.4 nM; in assay [5] it was 7.59 nM.

As usually defined, the IC50 is the concentration that gives 50% inhibition.
